Reference: article PMC11249646, “Small-Molecule Disruptors of the Interaction between Calcium- and Integrin-Binding Protein 1 and Integrin αIIbβ3 as Novel Antiplatelet Agents” (ACS Pharmacology & Translational Science, 2024)
Read-outs that look alike come from different tables or passages of the source.

What was measured:
[1] = target: T1, GST-CIB1 : F-αIIb peptide (Homo sapiens, UniProt Q99828); test: FP assay in the presence of glutathione (GSH), thiol reactivity; assay type: binding; conditions: for GSH/CIB1 IC50 ratio: ratio of GSH (+) IC50 to GSH (-) IC50
T1 construct: made in house; host or cells: BL-21 plus RIL cells (E. coli)
T1 sequence (Q99828 1-191): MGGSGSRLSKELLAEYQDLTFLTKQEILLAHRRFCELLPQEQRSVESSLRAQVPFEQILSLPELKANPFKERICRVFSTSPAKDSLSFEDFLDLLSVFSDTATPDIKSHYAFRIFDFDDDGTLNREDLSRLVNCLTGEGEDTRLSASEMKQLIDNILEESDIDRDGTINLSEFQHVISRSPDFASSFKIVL

[2] = target: T2, CIB1 and αIIb interaction (CIB1-GST : F-αIIb peptide) (Homo sapiens, UniProt Q99828); test: FP assay, 1536-well qHTS format (primary and confirmatory screen); assay type: binding; conditions: for CONFIRMATORY SCREEN Curve Class: qHTS curve class; for CONFIRMATORY SCREEN Curve Class / Curve Class: negative sign = inhibitory curve; for CONFIRMATORY SCREEN Confirm?: YES/NO call
T2 construct: made in house; host or cells: BL-21 plus RIL cells (E. coli)
T2 sequence (Q99828 1-191): T1 sequence (Q99828 1-191)

[3] = target: T3, CIB1 and αIIb interaction (GST-CIB1 : F-αIIb peptide) (Homo sapiens, UniProt Q99828); test: FP assay, 384-well format (screen); assay type: binding; set-up: 384-well SCREEN Efficacy (%): concentration or dose not given beside the values; conditions: for 384-well SCREEN Efficacy (%) / 384-well SCREEN Confirm? / IC50: F-αIIb peptide; for 384-well SCREEN Confirm?: YES/NO; for IC50: read-out: 384-well SCREEN IC50
T3 construct: made in house; host or cells: BL-21 plus RIL cells (E. coli)
T3 sequence (Q99828 1-191): T1 sequence (Q99828 1-191)

[4] = target: T4, GST-CIB1 : F-scrambled peptide (Homo sapiens, UniProt Q99828); test: FP scrambled-peptide counter screen, 384-well format; assay type: binding; conditions: F-scrambled peptide; for 384-well COUNTERSCREEN Confirm?: *: Curve in opposite direction; for IC50: read-out: 384-well COUNTERSCREEN IC50
T4 construct: made in house; host or cells: BL-21 plus RIL cells (E. coli)
T4 sequence (Q99828 1-191): T1 sequence (Q99828 1-191)

[5] = target: T4, GST-CIB1 : F-scrambled peptide; test: FP scrambled-peptide counter screen, 1536-well format; assay type: binding; conditions: for COUNTERSCREEN Curve Class: qHTS curve class; for IC50: read-out: COUNTERSCREEN IC50; for COUNTERSCREEN Confirm?: YES/NO call
[6] = target: T5, GST-CIB1:F-αIIb interaction (Homo sapiens, UniProt Q99828); test: Gel-based (in-gel) binding assay; conditions: 1 μM GST-CIB1, 400 nM F-αIIb; 60 μM, 1:2, 4-points
T5 construct: made in house; host or cells: BL-21 plus RIL cells (E. coli)
T5 sequence (Q99828 1-191): T1 sequence (Q99828 1-191)

[7] = FP assay in the presence of glutathione (GSH +), read-out: GSH (+) Assay IC50
[8] = FP assay without glutathione (GSH -), read-out: GSH (-) Assay IC50
[9] = confirmatory screen, read-out: CONFIRMATORY SCREEN IC50
[10] = qHTS primary screen hits, Table S2, negative = inhibition
[11] = qHTS primary screen hits, Table S2, several classes where COUNT > 1
[12] = qHTS primary screen hits, Table S2, read-out: IC50
[13] = scrambled-peptide counterscreen
[14] = confirmatory screen, negative = inhibition
[15] = qHTS FP screen hits, Table S2, negative = inhibition
[16] = qHTS FP screen hits, Table S2, one class per curve where COUNT > 1
[17] = qHTS FP screen hits, Table S2, read-out: IC50

Compound	GSH/CIB1 IC50 ratio [1]	CONFIRMATORY SCREEN Curve Class ([2]; confirmatory screen)	IC50 [2, 9] [µM]	Efficacy (%) [2, 10] [%]	Curve Class [2, 11]	IC50 [2, 12] [µM]	384-well SCREEN Efficacy (%) [3] [%]	384-well SCREEN Confirm? [3]	IC50 [3] [µM]	384-well COUNTERSCREEN Efficacy (%) [4] [%]	384-well COUNTERSCREEN Confirm? [4]	IC50 [4] [µM]	COUNTERSCREEN Curve Class [5, 13]	IC50 [5, 13] [µM]	Active in Gel Assay? [6]	CONFIRMATORY SCREEN Confirm? ([2]; confirmatory screen)	CONFIRMATORY SCREEN Efficacy (%) [2, 14] [%]	COUNTERSCREEN Efficacy (%) [5, 13] [%]	COUNTERSCREEN Confirm? [5, 13]	Efficacy (%) [2, 15] [%]	also measured
COc1cccc(-n2c(SCc3cc(=O)oc4cc(O)c(O)cc34)nc3ccccc3c2=O)c1.O=C(O)C(F)(F)F [NCGC00371345-01]	0.8	-1.1	14.1	-34	-1.4	4.5	73	YES	11.2	38	Inconclusive	7.1	-2.4	8.9	YES						IC50 [1, 7]: 15.9 µM; IC50 [1, 8]: 20 µM; GSH Assay Result ([1]; thiol reactivity call: No change / Active): No change; CONFIRMATORY SCREEN Efficacy (%) [2]: -90%; Confirm and Selective? ([3]; selective toward αIIb: negative curve class and/or IC50 ratio of >3-fold and/or >2-fold efficacy vs scrambled peptide): Inconclusive; COUNTERSCREEN Efficacy (%) [5]: -35%
O=[N+]([O-])c1cnc(Sc2nnc(O)n2-c2ccc3c(c2)OCCO3)s1 [NCGC00263145-01]		-1.4	11.2	-40	-2.2	21.5	67	YES	2.2	89	YES	89.1	4		YES	YES	-64	15	YES		
CN(C)C(=S)SSC(=S)N(C)C [NCGC00091563-02, thiram, reference compound]	8.3						78	YES	2.8	44	YES	> 120			YES						IC50 [1, 7]: 8.3 µM; IC50 [1, 8]: 1 µM; IC50 shift in the presence of GSH ([1]; with vs without 10 μM reduced GSH): 8.3 fold
S=C(SSC(=S)N1CCCCC1)N1CCCCC1 [NCGC00181776-01]	30.8																				IC50 ([1]; GSH (+) Assay IC50, FP assay in the presence of glutathione (GSH +)): > 120 µM; IC50 ([1]; GSH (-) Assay IC50, FP assay without glutathione (GSH -)): 4.6 µM
N#Cc1cnc(NS(=O)(=O)c2ccc(NC(=O)Cc3ccc(Cl)c(Cl)c3)cc2)s1.O=C(O)C(F)(F)F [NCGC00250147-02]		-1.2	6.3				42	YES	7.9	25	YES	> 120	4			YES	-48	20	YES	-40	Curve Class [2, 16]: -1.2; IC50 [2, 17]: 5.6 µM
CCOC(=O)c1nnc(NS(=O)(=O)c2ccc(NC(=O)Cc3ccc(Cl)c(Cl)c3)cc2)s1.O=C(O)C(F)(F)F [NCGC00248354-01]		-1.2	15.8				31	YES	28.2	20	YES	> 120		44.7		YES	-47	66	YES		
O=C(O)C1=NC(C(=O)O)CC(/C=C/N2c3cc(O)c(OC4OC(CO)C(O)C(O)C4O)cc3CC2C(=O)O)=C1 (stereo not drawn) [NCGC00346734-01]		-2.2	50.1	-25		24.1	43	YES	39.8	10	YES	> 120	4			YES	-66	-18	YES		Curve Class ([2]; qHTS primary screen hits, Table S2): -2.4
O=C(O)C(F)(F)F.O=S(=O)(Nc1nc2n(n1)C(c1ccccc1)C=C(c1ccc(Cl)cc1)N2)c1ccccc1 (stereo not drawn) [NCGC00100537-04]		-2.2	39.8				85	YES	50.1	80		50.1	4			YES	-81	10	YES	-125	Curve Class [2, 16]: -1.1; IC50 [2, 17]: 22.4 µM
COc1ccc2c(c1)C=C1Cn3c-2c(C2CCCCC2)c2ccc(cc23)C(=O)NS(=O)(=O)N(C)CCOCCN(C)C1=O [NCGC00482982-02]		-2.2	39.8				35	YES	30.1	25	YES*	> 120		70.8		YES	-52	101	YES	-35	Curve Class [2, 16]: -2.2; IC50 [2, 17]: 56.2 µM
Cl.NC(CO)(CO)CCc1ccc(Sc2cccc(OCc3ccccc3)c2)cc1Cl [NCGC00250388-02]		-2.4	50.1	-71	-2.2	79.4	57	YES	31.6	17	YES	> 120	4			YES	-80	-28	YES		
